Laboratory results: article PMC2263054, “Functional evolution of the vitamin D and pregnane X receptors” (BMC Evolutionary Biology, 2007)

Columns and labels:
EROD activity [1] = assay: EROD assay in sea lamprey primary hepatocytes; settings: 24–48 hr exposure
[2] = test system: ethoxyresorufin O-deethylase (EROD) activity (CYP1A-like activity); assay: EROD assay in zebrafish primary hepatocytes; settings: for maximal rate of EROD activity: zebrafish primary hepatocytes, 24 hour exposure (Figure 3 legend: 48-hour)
Description: (§1) The cells are cultured at 26°C in ambient atmosphere.

[3] = test system: flurbiprofen 4-hydroxylation activity (CYP2C-like activity); settings: zebrafish primary hepatocytes, 48-hour exposure; TCDD 1 nM, androstanol 200 μM
Mouse VDR = target: T1, Mouse VDR (Mus musculus, UniProt P48281); assay: luciferase reporter transactivation assay in HepG2-NTCP cells, full-length mVDR with CYP3A4-PXRE-Luc; settings: HepG2-NTCP cells, luciferase reporter; unit not given; also cells saying No effect
T1 sequence (P48281 1-422): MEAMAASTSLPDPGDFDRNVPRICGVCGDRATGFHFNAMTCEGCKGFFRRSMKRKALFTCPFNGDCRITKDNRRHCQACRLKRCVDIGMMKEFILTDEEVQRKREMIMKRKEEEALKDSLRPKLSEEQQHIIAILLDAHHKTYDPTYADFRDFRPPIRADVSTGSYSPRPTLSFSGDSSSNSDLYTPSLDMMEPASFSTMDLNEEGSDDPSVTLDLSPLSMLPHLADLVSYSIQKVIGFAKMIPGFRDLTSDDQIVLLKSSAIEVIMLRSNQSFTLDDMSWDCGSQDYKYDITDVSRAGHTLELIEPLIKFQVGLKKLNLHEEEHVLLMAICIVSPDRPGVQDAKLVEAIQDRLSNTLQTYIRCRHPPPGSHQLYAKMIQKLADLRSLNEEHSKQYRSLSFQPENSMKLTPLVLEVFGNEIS

Human VDR = target: T2, Human VDR (Homo sapiens, UniProt P11473); assay: luciferase reporter transactivation assay in HepG2-NTCP cells, full-length hVDR with CYP3A4-PXRE-Luc; settings: HepG2-NTCP cells, luciferase reporter; unit not given; also cells saying No effect
T2 sequence (P11473 1-427): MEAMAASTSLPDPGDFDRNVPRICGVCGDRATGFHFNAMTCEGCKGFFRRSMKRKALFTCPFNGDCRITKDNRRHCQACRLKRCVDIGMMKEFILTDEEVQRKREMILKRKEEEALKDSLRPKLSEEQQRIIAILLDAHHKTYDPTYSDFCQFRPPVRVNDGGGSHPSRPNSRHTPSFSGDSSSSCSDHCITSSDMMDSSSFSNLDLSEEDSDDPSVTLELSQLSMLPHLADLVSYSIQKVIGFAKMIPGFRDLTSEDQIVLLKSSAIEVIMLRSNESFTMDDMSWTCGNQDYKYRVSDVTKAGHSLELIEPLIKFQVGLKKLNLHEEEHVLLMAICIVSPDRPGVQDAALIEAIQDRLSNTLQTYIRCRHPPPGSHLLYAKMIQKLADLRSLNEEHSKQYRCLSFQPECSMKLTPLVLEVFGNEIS

zebrafish PXR = settings: luciferase reporter in HepG2 cells, normalized to 20 μM androstanol
[4] = test system: testosterone 6β-hydroxylation; assay: testosterone hydroxylation (HPLC) in sea lamprey primary hepatocytes; type: cell-based; settings: concentration ranges per compound
Description: (§2) 100 μL of sample, calibration standard, or quality material standard were pipetted into separate microcentrifuge tubes and mixed with 100 μL of methanol. Samples were vortexed and centrifuged at 13,000 rpm for 4 min. The supernatant was then injected into the HPLC.
(§3) The flow rate was 1.2 mL/min and total run time was 25 min.

[5] = test system: 6β- and 12α-hydroxylation of testosterone; assay: testosterone hydroxylation (HPLC) in African clawed frog primary hepatocytes; type: cell-based, Xenopus laevis; settings: relative to vehicle control
Description: Xenopus laevis primary hepatocytes were cultured by a protocol adapted from a published report. Frogs are sacrificed with MS-222, rinsed with 70% ethanol, and the liver lobes perfused via the heart, initially with 375 mL Barth (88 mM NaCl, 1 mM K2SO4, and 10 mM HEPES-NaOH, pH 7.4) containing 0.82 mM MgCl2 and 0.1 mg/mL heparin, and then with 25 mL Barth containing 2.22 mM Ca(NO3)2, 2.74 mM CaCl2, and 200 U/mL type I collagenase (Worthington Chemicals, Lakewood, NJ). Livers are minced to fine pieces in 12.5 mL Barth-collagenase solution and then incubated for 10 min at room temperature, periodically disaggregating the liver pieces with a Pasteur pipette. The liver cells are then placed on a shaking incubator for 5 min at room temperature, followed by another 10 min of periodic pipetting to complete disaggregation. Cells are then filtered through a 130 μm Nitex nylon mesh (Fisher Scientific), following by spinning at 500 g for 5 min at 4°C. The supernatant is then aspirated and diluted to 50 mL with Barth plus MgCl2 and then allowed to settle while cooled in ice for 30 min. The supernatant is removed, and the cellular pellet is resuspended and subjected to one more round of nylon mesh filtration, dilution in Barth plus MgCl2, and settling while cooled in ice. The supernatant is removed and the remaining cells are washed once with Barth plus MgCl2 and then centrifuged at 500 g for 5 min at 4°C. The cells are then resuspended in 0.6 × Coon's Modified Ham's F-12 medium (Invitrogen) supplemented with 0.1 × Barth (88 mM NaCl, 1 mM K2SO4, 10 mM HEPES), 200 U/mL penicillin G, 100 μg/mL streptomycin sulfate, 2 mM glutamine, 0.2% glucose, and 10 μg/mL bovine insulin (Calbiochem), with the final pH adjusted to 7.5. […] Cells are cultured at 20°C in ambient atmosphere.
Testosterone metabolites were identified and quantitated by HPLC. […] The supernatant was then injected into the HPLC.

Sea lamprey VDR = target: T3, Sea lamprey VDR (Petromyzon marinus, UniProt Q7ZZY9); type: cell-based; settings: for Sea lamprey VDR EC50 ± SD: HepG2-NTCP cells, luciferase reporter, unit not given, also cells saying No effect
T3 sequence (Q7ZZY9 92-406): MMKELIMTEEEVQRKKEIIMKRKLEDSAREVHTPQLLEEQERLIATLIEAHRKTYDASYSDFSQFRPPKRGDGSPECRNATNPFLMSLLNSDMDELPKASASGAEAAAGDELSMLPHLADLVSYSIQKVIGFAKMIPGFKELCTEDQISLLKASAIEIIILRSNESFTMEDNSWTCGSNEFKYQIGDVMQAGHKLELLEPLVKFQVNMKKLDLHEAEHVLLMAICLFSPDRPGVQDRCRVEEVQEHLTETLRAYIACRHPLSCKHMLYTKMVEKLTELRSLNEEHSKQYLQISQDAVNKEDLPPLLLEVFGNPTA

Zebrafish VDR = target: T4, Zebrafish VDR (Danio rerio, UniProt Q9PTN2); assay: luciferase reporter transactivation assay in HepG2-NTCP cells, GAL4/zfVDR LBD chimera with tk-UAS-Luc; type: cell-based; settings: for Zebrafish VDR EC50 ± SD: HepG2-NTCP cells, luciferase reporter, unit not given, also cells saying No effect
T4 sequence (Q9PTN2 121-453): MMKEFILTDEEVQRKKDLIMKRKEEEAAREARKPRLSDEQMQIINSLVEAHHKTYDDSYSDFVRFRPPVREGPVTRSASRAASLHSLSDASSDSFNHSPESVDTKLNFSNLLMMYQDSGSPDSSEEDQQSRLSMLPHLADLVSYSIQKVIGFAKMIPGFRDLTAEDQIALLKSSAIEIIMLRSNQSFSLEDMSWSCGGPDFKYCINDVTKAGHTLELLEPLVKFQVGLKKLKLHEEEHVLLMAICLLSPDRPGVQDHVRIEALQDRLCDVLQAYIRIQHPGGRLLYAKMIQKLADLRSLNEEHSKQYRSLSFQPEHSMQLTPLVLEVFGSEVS

[6] = test system: testosterone 6β-hydroxylation activity (CYP3A-like activity); assay: testosterone hydroxylation (HPLC) in zebrafish primary hepatocytes
Description: as §1, §2, §3

EROD activity [7] = assay: EROD assay in African clawed frog primary hepatocytes; type: cell-based, Xenopus laevis; settings: 48 hour exposure
Description: Xenopus laevis primary hepatocytes were cultured by a protocol adapted from a published report. Frogs are sacrificed with MS-222, rinsed with 70% ethanol, and the liver lobes perfused via the heart, initially with 375 mL Barth (88 mM NaCl, 1 mM K2SO4, and 10 mM HEPES-NaOH, pH 7.4) containing 0.82 mM MgCl2 and 0.1 mg/mL heparin, and then with 25 mL Barth containing 2.22 mM Ca(NO3)2, 2.74 mM CaCl2, and 200 U/mL type I collagenase (Worthington Chemicals, Lakewood, NJ). Livers are minced to fine pieces in 12.5 mL Barth-collagenase solution and then incubated for 10 min at room temperature, periodically disaggregating the liver pieces with a Pasteur pipette. The liver cells are then placed on a shaking incubator for 5 min at room temperature, followed by another 10 min of periodic pipetting to complete disaggregation. Cells are then filtered through a 130 μm Nitex nylon mesh (Fisher Scientific), following by spinning at 500 g for 5 min at 4°C. The supernatant is then aspirated and diluted to 50 mL with Barth plus MgCl2 and then allowed to settle while cooled in ice for 30 min. The supernatant is removed, and the cellular pellet is resuspended and subjected to one more round of nylon mesh filtration, dilution in Barth plus MgCl2, and settling while cooled in ice. […]

Xenopus laevis VDR = target: T5, Xenopus laevis VDR (Xenopus laevis, UniProt O13124); assay: luciferase reporter transactivation assay in HepG2-NTCP cells, GAL4/xlVDR LBD chimera with tk-UAS-Luc; type: cell-based; settings: for Xenopus VDR EC50 ± SD: HepG2-NTCP cells, luciferase reporter, unit not given, also cells saying No effect
T5 sequence (O13124 90-422): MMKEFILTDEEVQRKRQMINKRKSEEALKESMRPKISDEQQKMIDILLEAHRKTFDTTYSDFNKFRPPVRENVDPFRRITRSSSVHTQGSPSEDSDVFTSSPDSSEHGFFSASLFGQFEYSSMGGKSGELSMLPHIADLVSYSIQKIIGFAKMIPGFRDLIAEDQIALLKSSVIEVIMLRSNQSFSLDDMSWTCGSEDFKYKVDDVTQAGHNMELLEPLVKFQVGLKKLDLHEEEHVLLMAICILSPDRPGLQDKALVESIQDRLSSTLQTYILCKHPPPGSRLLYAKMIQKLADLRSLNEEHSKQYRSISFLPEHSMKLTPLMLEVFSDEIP

[8] = test system: Flurbiprofen 4-hydroxylation; assay: flurbiprofen hydroxylation assay in sea lamprey primary hepatocytes; type: cell-based; settings: 48 hour treatment, 5α-petromyzonol 20 μM, 3-MC 5 μM, basal 2.8
[9] = screening for activators, at least three concentrations of each drug

Row | SMILES | effect on EROD activity (EROD activity [1]) | maximal rate of EROD activity [2] | Mouse VDR EC50 ± SD (Mouse VDR) | Human VDR EC50 ± SD (Human VDR) | effect on testosterone 6β-hydroxylation [4] | Sea lamprey VDR EC50 ± SD (Sea lamprey VDR) | Zebrafish VDR EC50 ± SD (Zebrafish VDR) | Xenopus VDR EC50 ± SD (Xenopus laevis VDR) | Flurbiprofen 4-hydroxylation activity [8] | also measured
1 | Clc1cc2c(cc1Cl)Oc1cc(Cl)c(Cl)cc1O2 [2,3,7,8-Tetrachlorodibenzo-p-dioxin, 2,3,7,8-tetrachlorodibenzo-p-dioxin] | did not alter EROD activity | 33.0 pmol/min/mg protein | No effect | No effect | None of these compounds produced significant increases in testosterone 6β-hydroxylation | No effect | No effect | No effect |  | EC50 at 24 h ([2]; zebrafish, pH 7.8): 0.15 ± 0.022 nM; effect on flurbiprofen 4-hydroxylation activity [3]: Lesser increases relative to vehicle control; activation of recombinant zebrafish PXR (zebrafish PXR): all activate recombinant zebrafish PXR; Ciona VDR/PXR relative efficacy (Ciona VDR/PXR; relative to maximal reference compound (20 μM 6-formylindolo-[3,2-b]-carbazole, efficacy = 1.0)): 1.80; activation of ciVDR/PXR (Ciona VDR/PXR; unpublished data of the authors): activated; effect on 6β- and 12α-hydroxylation of testosterone [5]: neither activity was substantially increased relative to vehicle control; EC50 at 48 h ([6]; zebrafish): 0.154 ± 0.03 nM; maximal rate of testosterone 6β-hydroxylation ([6]; zebrafish primary hepatocytes, 48-hour exposure): 2830 pmol/min/mg protein; maximal rate of EROD activity (EROD activity [7]): 9.8 pmol/min/mg protein; EC50 (EROD activity [7]; Xenopus laevis, Hepatocyte, read-out: EC50 for increase of EROD activity): 6.5 ± 0.77 nM
2 | Cc1ccc2cc3c(ccc4ccccc43)c3c2c1CC3 [3-Methylcholanthrene] | did not alter EROD activity | 28.1 pmol/min/mg protein |  |  | None of these compounds produced significant increases in testosterone 6β-hydroxylation |  |  |  | 0.33 nmol/min/mg protein | EC50 ([2]; zebrafish, pH 7.8): 373 ± 22 nM; Effect on sea lamprey VDR (Sea lamprey VDR; [9]): No effect; Effect on zebrafish VDR (Zebrafish VDR; [9]): No effect; Effect on Xenopus laevis VDR (Xenopus laevis VDR; [9]): No effect
3 | C[C@H](CCCO)[C@H]1CC[C@H]2[C@@H]3[C@H](O)C[C@H]4C[C@H](O)CC[C@]4(C)[C@H]3C[C@H](O)[C@]12C [5α-Petromyzonol, 5α-cholan-3α,7α,12α,24-tetrol] | did not alter EROD activity |  | No effect | No effect | None of these compounds produced significant increases in testosterone 6β-hydroxylation | No effect | No effect | No effect | 0.21 nmol/min/mg protein | Ciona VDR/PXR EC50 ± SD (Ciona VDR/PXR; HepG2-NTCP cells, luciferase reporter, unit not given, also cells saying No effect): No effect
